According to US9572760B2, “Uses of compounds and mixtures from Antrodia cinnamomea mycelia” (Simpson Biotech Co., Ltd., priority 2013, dated 2017):

What was measured:
cirrhotic animals [1] = assay: Redox status (Glutathione level, GSH:GSSG ratio) in cirrhotic animals; type: in vivo, Wistar rats; conditions: compound B 7 mg/kg, compound C 14 mg/kg
Procedure: A commercially available kit (# K264-100, BioVision) was used to measure glutathione (GSH), and oxidized glutathione (GSSG). […] The assay was conducted with several modifications to the manufacturer's directions. Briefly, cellular pellet (˜10 mg) was homogenized immediately, and take 60 μl of each sample to a prechilled tube containing Perchloric Acid and centrifuged at 13,000×g for 2 min, collect supernatant and stored at −80° C. until analyzed. The assay was conducted as described by the manufacturer. Briefly, cold 3N KOH was added to each sample mixed, and centrifuged at 13,000×g for 10 min. Ten microliters of each sample and the appropriate buffer and 90 μl of Assay Buffer to detect GSH and 10 μl of glutathione reductase were mixed to detect total glutathione and 10 μl of GSH Quencher to detect GSSG and incubated at room temperature for 40 min and the absorbance of each sample was read at 340/420 nm for 3 min. The protein concentration for each sample was determined via a DC protein concentration assay (Bio-Rad). Signals from each sample were normalized to the corresponding protein content of that sample.

HSC = HSC proliferation by BrdU assay; type: cell-based; conditions: 24-80 μM; for HSC proliferation (BrdU assay): 24 h, 48 h and 72 h
Procedure: The Cell Proliferation ELISA, BrdU kit was designed to quantitate cell proliferation bases on the measurement of BrdU incorporation during DNA synthesis in proliferation cells. Briefly, cells (1×10^4 cells/well) were seeded in 100 μl medium in a 96-well plate (Nunc, Denmark) and cultured for 24 h to allow the cells to attach and then treated with three different concentrations ([…]) of either Compound A, B, C and D for 24 h, 48 h and 72 h and the plates were incubated in 37° C. After incubation, the culture medium was labeled with 10 μl/well BrdU (Roche Diagnostic Inc.), and the cells were reincubated for addition 16 h at 37° C. Labeling medium was removed using 10 min centrifuge at 200×g and blow dried. Cells were fixed using 200 μl FixDenat solution and incubated for 30 min at room temperature. Removing the FixDenat solution, 100 μl of anti-BrdU-POD was added and incubated for 90 min at room temperature. After the incubation period, microplates were washed three times with PBS buffer and 100 μl substrate solution was added and incubated for 30 min. Stop solution was added (25 μl of 1 M H2SO4) and absorbance of the samples was measured using ELISA reader at 450 nm.

cirrhotic animals [2] = assay: Biochemical analysis of serum (liver damage parameters) in DEN cirrhotic animal model; type: in vivo, Wistar rats; conditions: compound B 7 mg/kg, compound C 14 mg/kg, ACM 320 mg/kg/day, gastric tube, 5th to 11th week, vs control group
Procedure: Samples of 1 ml blood were gathered from the retro-orbital plexus of each […] and immediately centrifuged at 1300×g at 4° C., plasma was kept at −20° C. for liver function tests. Alanine aminotranferease (ALT), aspartate aminotransferase (AST), total bilirubin and Gamma-glutamyl transpeptidase (γ-GT) levels were determined using commercial enzymatic kits with a colorimetric analyzer (Dri-Chem 3000, Fuji Photo Film Co, Tokyo, Japan).

[3] = test system: pre-fibrotic genes including α-SMA, TIMP, Collagen type I and TGF-β1; assay: Real-time RT-PCR of pre-fibrotic gene expression in liver of cirrhotic animals; type: in vivo, Wistar rats; conditions: compound B 7 mg/kg, compound C 14 mg/kg, ACM 320 mg/kg
Procedure: Sample tissues of rat livers were measured about 0.5×0.5 cm in area. Each of tissue was homogenized in 1 mL of TRIzol buffer (Invitrogen, Carlsbad, Calif., USA) with a motorized pestle, and then mixed with 0.5 mL chloroform/isoamyl alcohol (24:1), and was centrifuged at 12,000×g for 10 min at 4° C. The supernatant was transferred to a fresh tube, and isopropanol was added, mix well and stored at −80° C. overnight. The reaction mixture was centrifuged at 12,000×g for 30 min at 4° C. to produce a rude RNA pallet, the pellet was washed with 70% ethanol and air-dried. The concentrations of total RNA were measured by absorbance at 260 nm using a NanoDrop ND-1000 (NanoDrop, USA). Reverse transcription reaction was performed using a commercially available set of High Capacity RNA-to-cDNA Kit (Applied Biosystems, USA). cDNA was prepared from 2 μg of total RNA per 20 μl reaction, according to the manufacturer's instructions—37° C. for 60 minutes, 95° C. for 5 minutes, and hold at 4° C. The resulting cDNA was to a final concentration of 100 ng/μl and constituted a matrix in further experiments. Amplification and detection the gene expression by real-time PCR were performed using StepOne plus Real-time PCR System (Applied Biosystems, USA). Samples were assayed in a 10 μl reaction mixture containing 2 μl of template DNA, 5 μl of 2× TaqMan PCR Master Mix (Applied Biosystems, Life Technologies, Foster City, Calif., USA), 0.5 μl of 20× assay mix containing probe, forward and reverse primer (Applied Biosystems, Life Technologies, Foster City, Calif., USA), whereby qPCR targets with the following information were used: (a) Rat α-SMA, Assay ID Rn01759928_g1, (b) Rat TIMP, Assay ID Rn00587558_m1, (c) Rat TGF-β1, Assay ID Rn00572010_m1, (d) Rat Collagen I, Assay ID Rn 01463838_m1, (e) Rat CuZnSOD, Assay ID Rn00566938_m1, (f) Rat MnSOD, Assay ID Rn00690587_g1, (g) Rat Catalase, Assay ID Rn00560930_m1, (h) Rat Glutathione peroxidase, Assay ID Rn00577994_g1, (i) Rat NADPH oxidase, Assay ID Rn00585380_m1 and (j) Rat GAPDH, Assay ID Rn1462662_g1. To control variation in mRNA concentration, all results were normalized to the housekeeping gene, GAPDH. Relative quantitation was performed using the comparative ΔΔCt method according to the manufacture's instructions. The cycling conditions used were as follows: 50° C. for 2 min, 95° C. for 10 min followed by 40 cycles of 95° C. for 15 s and 60° C. for 1 min each.

CC(C)=CCOc1ccc(C2=C(CC(C)C)C(=O)NC2=O)cc1 [Compound B, 3-isobutyl-4-[4-(3-methyl-2-butenyloxy)phenyl]-1H-pyrrol-2,5-dione]
Redox status: GSH:GSSG ratio (cirrhotic animals [1]): significantly improved
Redox status: Glutathione level (cirrhotic animals [1]): significantly improved
potency of effect on HSC proliferation and apoptosis compared to other compounds (HSC): most potent effect
HSC proliferation (BrdU assay) (HSC): markedly proliferation inhibition
serum Alanine aminotranferease (ALT) level (cirrhotic animals [2]): significantly reduced
serum Gamma-glutamyl transpeptidase (γ-GT) level (cirrhotic animals [2]): significantly reduced
serum aspartate aminotransferase (AST) level (cirrhotic animals [2]): significantly reduced
serum total bilirubin level (cirrhotic animals [2]): significantly reduced
Collagen type I gene expression in liver [3]: reduced significantly
TGF-β1 gene expression in liver [3]: reduced significantly
TIMP gene expression in liver [3]: reduced significantly
α-SMA gene expression in liver [3]: reduced significantly

CC(C)=CCOc1ccc(C2=C(CC(C)C)C(=O)N(O)C2=O)cc1 [Compound C, 3-isobutyl-4-[4-(3-methyl-2-butenyloxy)phenyl]-1H-pyrrol-1-ol-2,5-dione]
Redox status: GSH:GSSG ratio (cirrhotic animals [1]): significantly improved
Redox status: Glutathione level (cirrhotic animals [1]): significantly improved
HSC proliferation (BrdU assay) (HSC): markedly proliferation inhibition
serum Alanine aminotranferease (ALT) level (cirrhotic animals [2]): significantly reduced
serum Gamma-glutamyl transpeptidase (γ-GT) level (cirrhotic animals [2]): significantly reduced
serum aspartate aminotransferase (AST) level (cirrhotic animals [2]): significantly reduced
serum total bilirubin level (cirrhotic animals [2]): significantly reduced
Collagen type I gene expression in liver [3]: reduced significantly
TGF-β1 gene expression in liver [3]: reduced significantly
TIMP gene expression in liver [3]: reduced significantly
α-SMA gene expression in liver [3]: reduced significantly
